Laboratory results published in patent publication US20190216848A1, “New Use of Product for Skin Treatment” (BioCool AB, priority 2016, published 2019).
“Also recorded” adds a separate entry of the source.

Legend:
[1] = tested on: patients with acne vulgaris; settings: references (9), (10), (12); cited from earlier work
[2] = tested on: patients diagnosed with moderate acne (Acne vulgaris); assay: Acne vulgaris pilot study: blinded acne papule counting from photographs; assay type: in vivo, human
Description: A study consisted of a total of 16 patients, 2 males and 14 females. Mean age was 28±7 years. The study included men and women, previously healthy, between 18-45 years, not using contraception, not breastfeeding or pregnant, and having been diagnosed with moderate acne. Patients with ongoing treatment for acne vulgaris were excluded or treatment was withdrawn one month before the start of the study. Also, patients who could not follow instructions and who were assumed to have poor compliance were excluded.
(§1) Statistical Methods: Dropouts included in the result were 2 patients. These patients were followed up at the doctor's appointment number 2 and the results were included in the so-called “intention to treat” where the values produced two visits was the same for the coming weeks for follow-up visits. The statistical analysis used was t-test and Wilcoxon rank-sum test.
(§2) Each patient received the sodium percarbonate at home. […] This procedure was repeated daily by the patient. […] Follow-up visits occurred weekly for four weeks.
(§3) Photography: Each patient was photographed prior to initiation of treatment, and weekly for four weeks. Portrait photo is taken from the front and profile of each view of the face. Photos were taken with the same camera and camera settings and the same photographer. The same light was used by 45-degree angle. However, technology is not validated and all the photos were not taken exactly the same. Each patient was encoded by the study manager with a number. After all the photos were taken, outside observers (fellow doctor) counted the number of acne papule for each patient for each visit, without knowing the visit week during which the photo was taken. The number of acne papules was summed up by frontal view, as well as by the two side views. Results were calculated as an average of the number of acne papule for each visit at the group level. DLQ survey summed with points for each patient for each visit. Even this was calculated with the average at group level.

[3] = tested on: patients diagnosed with moderate acne (Acne vulgaris); assay: Acne vulgaris pilot study: DLQ (Dermatology Life Quality Index) symptom rating; assay type: in vivo, human
Description: as §1, §2
as §3, with “taken. […]” for “taken. The number of acne papules was summed up by frontal view, as well as by the two side views.”, “level. […]” for “level. DLQ survey summed with points for each patient for each visit.”, “level. […]” for “level.”

[4] = tested on: individuals with diabetes and neuropathy, feet with moderate to severe skin conditions; assay: Diabetic Peripheral Neuropathy foot bath study: skin condition of the feet by photos; assay type: in vivo, human; settings: for Condition of the feet / skin condition, visual (photos): all patients included, daily foot bath per study protocol, 6 weeks, preliminary results
Protocol: I. Improvement in skin condition evaluated by photos according to a pre-set scale (1-5): The target population include in this evaluation are adult individuals with diabetes and neuropathy, with feet with moderate to severe skin conditions 7.1.3 Frequency of application. Daily application for 6 weeks or until the signs and symptoms are cleared, then once a week. 1. Start by placing the feet in the footbath, containing 2-3 litres (about 1 gallon) of lukewarm water (about 38° C.). Measure out 15 ml (about 1 tbs.) of granules and add to the footbath. NB! The order is important, the feet must be in the bath before adding the granules. 2. Bathe the feet for about 20 minutes This is a 6-week, single centre, open label evaluation conducted in patients suffering from Diabetic Feet of neuropathic origin with moderate to severe non ulcer pathology (dry skin, cracks, callosities) 9.2 STUDY FLOW CHART visits 0 and 6 weeks for photos, skin evaluation, test protocol and evaluation of safety and concordance At each visit a required medical evaluations is performed at inclusion (0) and 6 weeks (+/−3 days). A photograph is performed and a test protocol is followed regarding skin condition. Any local and general intercurrent events (expected or unexpected) are recorded. Patients receive a patient care diary at their first visit. Investigators are allowed to see patients more frequently if required. 11.3 EVALUATION CRITERIA Improvement of skin condition evaluated by photos analysed by independent observers

[5] = Duration of effectiveness of the prepared aqueous solution; assay type: physicochemical; settings: 1-5 g in 0.05-1 dl of water at 35-40° C.; effectiveness gradually decreases
Protocol: The solution obtained according to the method above is effective for about 24 h. […] A new solution must be prepared after 24 hours as the effectiveness of the singlet oxygen in the solution has decreased below an efficient level for treatment. The solution is to be applied to the face and/or affected skin at least once daily.

[6] = tested on: patients diagnosed with moderate acne (Acne vulgaris); settings: four weeks of treatment
Protocol: Treatment and follow-up: On the first visit to a doctor, patients received the same information and instructions as given by the manufacturer BioCool®. Each patient received the sodium percarbonate at home. The jars of powder were unmarked but if the patient wished to know the content they were informed. All processing was done at residences of the patient by the patient. 5 ml of sodium percarbonate was dissolved in 5 ml of water at a temperature of 35-40° C. to form a solution. The solution was applied to the face using the fingers, and washed away with tap water after 5 minutes. This procedure was repeated daily by the patient. After about one hour after the treatment the subjects could, if desired, lubricate the skin with a moisturizing product, allowing enough time for the skin pores to close up for any additional product. Follow-up visits occurred weekly for four weeks. At each visit, the patient had completed the rating scale DLQ (Dermatology Life Quality Index), they were photographed and subject to an open interview.
Interview: The patient's subjective experience was investigated with a semi-structured interview based on the query field (8). The interview was conducted by research doctors. […] No recording method was used.

[7] = tested on: microorganisms; settings: within the range of 0.5-4% of hydrogen peroxide

SMILES: COc1ccc(-c2ccc3cc(C(=O)O)ccc3c2)cc1C12CC3CC(CC(C3)C1)C2 [Adapalene]
- Number of acne papules / efficacy in literature study [1]: significant reduced
- Safety / tolerance in literature study [1]: safe and effective

SMILES: O=C([O-])[O-].O=C([O-])[O-].OO.OO.OO.[Na+].[Na+].[Na+].[Na+] [Sodium percarbonate, sodium percarbonate]
- Number of acne papule over time (in words) ([2]; 4 weeks of treatment): clearly reduced; also recorded: significantly decreased
- Papule count, mean ([2]; after 4 weeks of daily topical treatment (5 ml in 5 ml water, 5 minutes), SD 10.2, p <0.001 vs before): 18.3
- Papule count, mean ([2]; before treatment (baseline), 16 patients, SD 12.4): 25.4
- Time to apparent effect on the appearance of new papules ([2]; topical treatment of Acne vulgaris): ≤ 2 weeks
- DLQ symptom rating, median ([3]; after 4 weeks of daily topical treatment, interquartile range 2, p 0.002): 1.5
- DLQ symptom rating, median ([3]; before treatment (baseline), interquartile range 4): 3
- Condition of the feet (photos), patient No. 01 ([4]; FIG. 4, after 6 weeks of treatment): The large crack on the right heel has significantly improved
- Condition of the feet (photos), patient No. 06 ([4]; FIG. 5, before vs after treatment): the ulcer has declined in size
- Condition of the feet (photos), patient No. 9 ([4]; FIG. 6, before vs after treatment): the hardened patches are no longer present
- Condition of the feet / skin condition, visual (photos) [4]: significant visual improvement
- Condition of the feet / skin condition, visual (photos) ([4]; listed as sodium percarbonate): significant improvement of the skin condition
- Time the prepared solution is effective [5]: about 24 h
- Patients' description of their skin in interviews [6]: cleaner, smoother, softer and firmer

SMILES: O=C(OOC(=O)c1ccccc1)c1ccccc1 [benzoyl peroxide]
- Number of acne papules / efficacy in literature study [1]: significant reduced
- Safety / tolerance in literature study [1]: safe and effective

SMILES: OO [hydrogen peroxide]
- Effect on killing off microorganisms with increasing concentration [7]: practically the same
- Number of acne papules / efficacy in literature study [1]: at least as good
- Safety / tolerance in literature study [1]: better tolerance for skin
